Laboratory results taken from US9034906B2, “EP4 agonist” (Asahi Glass Company, Limited, priority 2008, dated 2015).

Assays:
human EP1 = target: T1, human EP1 (Homo sapiens, UniProt P34995); experiment: Receptor affinity, tritium-labeled PGE2 binding to membranes of transfected COS-7 cells; conditions: COS-7 cell membranes
T1 construct: expressed in transfected cells; host or cells: COS-7 (membranes)
T1 sequence (P34995 1-402): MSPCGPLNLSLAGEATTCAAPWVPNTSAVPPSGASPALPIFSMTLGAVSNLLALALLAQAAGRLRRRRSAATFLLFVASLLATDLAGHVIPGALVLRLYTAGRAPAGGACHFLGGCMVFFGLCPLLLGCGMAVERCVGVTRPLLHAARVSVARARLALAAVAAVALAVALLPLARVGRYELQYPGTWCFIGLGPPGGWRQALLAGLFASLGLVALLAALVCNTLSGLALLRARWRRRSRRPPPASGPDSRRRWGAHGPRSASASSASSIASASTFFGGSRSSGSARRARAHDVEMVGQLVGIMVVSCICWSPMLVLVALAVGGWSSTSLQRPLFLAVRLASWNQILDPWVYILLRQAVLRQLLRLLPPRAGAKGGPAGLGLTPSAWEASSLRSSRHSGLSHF
Protocol: PG receptor affinity of compound F and compound J of the present invention was evaluated. Compound F used was one synthesized in Example 9, and compound J was prepared by separating and purifying the compound synthesized in Example 14 with a column (the same preparations were used in the following Examples). COS-7 cells were transfected with the genes of mouse EP4, human EP1-4 or human IP to overexpress the receptor and then the cell membranes were collected. As a labeled ligand, tritium-labeled PGE2 was used for EPs; tritium-labeled iloprost, for IP. The dissociation constant Kd value was obtained and inhibition constant Ki value of each test compound was determined in a conventional method. As a reference control, PGE2 was used for EPs; beraprost sodium (BPS), for IP.

IL-2 = experiment: Suppression of IL-2 production by anti-CD3/anti-CD28 stimulated CD4 positive T cells; type: cell-based; conditions: human CD4 positive T cells, anti-CD3 and anti-CD28 antibody, 24 hr, ELISA; geometric mean of three volunteers
Protocol: Using human peripheral blood, an anti-inflammatory effect of compounds F and J in vitro was studied. Blood was collected from 3 healthy volunteers, and CD4 positive T cells were prepared. Anti-CD3 antibody and anti-CD28 antibody were added, and 24 hr later the amounts of IL-2 and TNFα released in the medium were measured by ELISA. […] The amount of IP-10 released into the medium for 48 hr was measured with ELISA. In both cases, the test compound was added 30 min before stimulation.
Each value is a geometric mean of three volunteers.

CCCCC[C@H](O)/C=C/[C@H]1[C@H](O)CC(=O)[C@@H]1C/C=C\CCCC(=O)O [PGE2]
Ki (human EP1): 2.9 nM | IC50 (IL-2): 0.062 nM
